# Experimental data from patent US20240415918A1, “Polypeptide and its use as a CCK receptor agonist/antagonist” (Centre for Regenerative Medicine & Health, Hong Kong …, priority 2021, published 2024).
# Where a SMILES comes first, the peptide text is derived from it. [ ]: non-standard residue; d: D form. Trp(5-OH) = N[C@@H](Cc1c[nH]c2ccc(O)cc12)C(=O)O; sY = N[C@@H](Cc1ccc(OS(=O)(=O)O)cc1)C(=O)O; Phe(3-Br) = N[C@@H](Cc1cccc(Br)c1)C(=O)O; Nle = CCCC[C@H](N)C(=O)O
# How the values were obtained:
# [1] = target: T1, CCK-B receptors (CHO-CCK) (Homo sapiens, UniProt P32239); test: Calcium flux (Fluo-8) agonist test on CHO-CCK model cells; format: cell-based; settings: for EC50: CHO-CCK cells; for Agonistic Activity (%) at 10 μM: compound at 10 μM, percentage of signal of 20 nM CCK8 alone
# T1 construct: expressed in transfected cells; host or cells: CHO (CHO-CCK model cells)
# T1 sequence (P32239 1-447): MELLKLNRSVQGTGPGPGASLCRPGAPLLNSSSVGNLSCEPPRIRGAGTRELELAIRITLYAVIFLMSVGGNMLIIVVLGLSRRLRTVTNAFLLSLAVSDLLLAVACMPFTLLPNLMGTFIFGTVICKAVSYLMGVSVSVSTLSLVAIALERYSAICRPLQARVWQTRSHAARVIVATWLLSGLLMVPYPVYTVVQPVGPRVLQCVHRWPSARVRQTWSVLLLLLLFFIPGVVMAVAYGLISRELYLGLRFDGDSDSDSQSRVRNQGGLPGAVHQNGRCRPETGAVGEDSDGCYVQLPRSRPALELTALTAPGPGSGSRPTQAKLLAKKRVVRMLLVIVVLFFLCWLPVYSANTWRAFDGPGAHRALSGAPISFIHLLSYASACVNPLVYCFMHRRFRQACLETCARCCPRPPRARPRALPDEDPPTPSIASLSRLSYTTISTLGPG
# Method in brief: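 Agonist-mode Fluo-8 calcium flux read on CHO-CCK cells after dye loading 30 min at 37 °C plus 30 min at room temperature.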
# [2] = target: T1, CCK-B receptors (CHO-CCK); test: Calcium flux (Fluo-8) antagonist test on CHO-CCK model cells in presence of CCK8; format: cell-based
# [3] = Fluo-8 calcium flux, 100% control = 20 nM CCK8
# [4] = in presence of 10 nM CCK8, bound in μM
# [5] = compound alone, 100% = 20 nM CCK8
# [6] = compound together with 10 nM CCK8
Compound,"EC50 [1, 3]","EC50 [1, 5]",Agonistic Activity (%) at 10 μM [1],"EC50 [2, 6]",further results
"CCCC[C@H](NC(=O)[C@@H](Cc1c[nH]c2ccccc12)NC(C)=O)C(=O)N[C@@H](CC(=O)O)C(=O)N[C@@H](Cc1c[nH]c2ccc(O)cc12)C(N)=O [HT-226, Ac-D-Trp-Nle-Asp-(5-HTP)-NH2] (Ac-[dW][Nle]D[Trp(5-OH)]-NH2)",14.2 µM,–,–,–,"EC50 [2, 4]: > 10 µM"
"CSCC[C@H](NC(=O)[C@H](N)Cc1c[nH]c2ccccc12)C(=O)N[C@@H](CC(=O)O)C(=O)N[C@@H](Cc1cc(F)c(F)c(F)c1)C(N)=O [HT-40, D-Trp-Met-Asp-Phe(3,4,5-TriF)-NH2]",–,0.078 µM,98.25%,0.244 µM,–
"CSCC[C@H](NC(=O)[C@@H](Cc1c[nH]c2ccccc12)NC(C)=O)C(=O)N[C@@H](CCCCN)C(=O)N[C@@H](Cc1cccc(Br)c1)C(N)=O [HT-188, Ac-D-Trp-Met-Lys-Phe(3-Br)-NH2] (Ac-[dW]MK[Phe(3-Br)]-NH2)",–,1.84 µM,–,7.55 µM,–
"CSCC[C@H](NC(=O)[C@H](Cc1c[nH]c2ccccc12)NC(C)=O)C(=O)N[C@@H](CC(=O)O)C(=O)N[C@@H](Cc1c[nH]c2ccccc12)C(N)=O [HT-193, Ac-Trp-Met-Asp-Trp-NH2] (Ac-WMDW-NH2)",–,0.000814 µM,–,0.057 µM,–
"CCCC[C@H](NC(=O)[C@@H](Cc1c[nH]c2ccccc12)N(C)C(=O)CNC(=O)OCC1c2ccccc2-c2ccccc21)C(=O)N[C@@H](CC(=O)O)C(=O)N[C@@H](Cc1cccc(Br)c1)C(N)=O [HT-251, Fmoc-Gly-(N-Me-Trp)-Nle-Asp Phe(3-Br)-NH2]",0.00592 µM,–,–,–,EC50 ([2]; in presence of 10 nM CCK8): 1.61 µM
"CCCCCCC[C@@H](NC(C)=O)C(=O)N[C@@H](CCCC)C(=O)N[C@@H](CCC(=O)O)C(=O)N[C@@H](Cc1cccc(Br)c1)C(N)=O [HT-264, Ac-Na-Nle-Glu-Phe(3-Br)-NH2]",11 µM,–,–,–,"EC50 [2, 4]: > 10 µM"
"CSCC[C@H](NC(=O)[C@H](Cc1ccc(OS(=O)(=O)O)cc1)NC(=O)[C@H](CC(=O)O)NC(C)=O)C(=O)NCC(=O)N[C@@H](Cc1c[nH]c2ccccc12)C(N)=O [HT-216, Ac-Asp-Tyr(SO3H)-Met-Gly-Trp-NH2] (Ac-D[sY]MGW-NH2)",0.588 µM,–,–,–,EC50 ([2]; in presence of 10 nM CCK8): 1.44 µM
"CSCC[C@H](NC(=O)[C@@H](Cc1ccccc1)NC(C)=O)C(=O)N[C@@H](CC(=O)O)C(=O)N[C@@H](Cc1cccc(Br)c1)C(N)=O [HT-180, Ac-D-Phe-Met-Asp-Phe(3-Br)-NH2] (Ac-[dF]MD[Phe(3-Br)]-NH2)",–,0.447 µM,–,3.56 µM,–
"CCCC[C@H](NC(=O)[C@@H](Cc1cn(C)c2ccccc12)NC(C)=O)C(=O)N[C@@H](CC(=O)O)C(=O)N[C@@H](Cc1cccc(Br)c1)C(N)=O [HT-230, Ac-(1-Me-Trp)-Nle-Asp-Phe(3-Br)-NH2]",0.00192 µM,–,–,–,EC50 ([2]; in presence of 10 nM CCK8): 0.0575 µM
"CSCC[C@H](NC(=O)[C@H](N)Cc1c[nH]c2ccccc12)C(=O)N[C@@H](CC(=O)O)C(=O)N[C@@H](Cc1ccccc1F)C(N)=O [HT-25, D-Trp-Met-Asp-Phe(2-F)-NH2]",–,0.225 µM,89.41%,0.603 µM,–
"CSCC[C@H](NC(=O)[C@H](N)Cc1c[nH]c2ccccc12)C(=O)N[C@@H](CC(=O)O)C(=O)N[C@@H](Cc1cc(Cl)cc(Cl)c1)C(N)=O [HT-38, D-Trp-Met-Asp-Phe(3,5-DiCl)-NH2]",–,0.0493 µM,122.74%,0.0997 µM,–
"CSCC[C@H](NC(=O)[C@H](N)Cc1c[nH]c2ccccc12)C(=O)N[C@@H](CC(=O)O)C(=O)N[C@@H](Cc1ccc([N+](=O)[O-])cc1)C(N)=O [HT-33, D-Trp-Met-Asp-Phe(4-NO2)-NH2]",–,0.241 µM,71.20%,1.2 µM,–
"CSCC[C@H](NC(=O)[C@H](Cc1ccccc1)NC(C)=O)C(=O)N[C@@H](CC(=O)O)C(=O)N[C@@H](Cc1cccc(Br)c1)C(N)=O [HT-223, Ac-Phe-Met-Asp-Phe(3-Br)-NH2] (Ac-FMD[Phe(3-Br)]-NH2)",0.225 µM,–,–,–,EC50 ([2]; in presence of 10 nM CCK8): 1.88 µM
"CS(=O)(=O)CC[C@H](NC(=O)[C@H](N)Cc1c[nH]c2ccccc12)C(=O)N[C@@H](CC(=O)O)C(=O)N[C@@H](Cc1cccc(F)c1)C(N)=O [HT-61, D-Trp-Met(O2)-Asp-Phe(3-F)-NH2]",–,–,36.66%,–,"EC50 ([2]; compound together with 10 nM CCK8, bound in μM): > 10 µM"
"CSCC[C@H](NC(=O)[C@H](Cc1c[nH]c2ccccc12)NC(C)=O)C(=O)N[C@@H](CC(=O)O)C(=O)N[C@@H](CCCCN)C(N)=O [HT-194, Ac-Trp-Met-Asp-Lys-NH2] (Ac-WMDK-NH2)",–,–,–,2.22 µM,"EC50 ([1]; compound alone, bound in μM): > 10 µM"
